The text below walks through data of paper PMC12140300, “Development of Carbon‐11 Labeled Pyrimidine Derivatives as Novel Positron Emission Tomography (PET) Agents Enabling Brain Sigma‐1 Receptor Imaging” (Advanced Science, 2025).

Series [1] in a line: NHP plasma and metabolite analysis. Particulars: 30-minute mark. The class given is in vivo, rhesus macaque. The text has this: Understanding the metabolism of [^11C]CNY‐01 is crucial for modeling its distribution kinetics and evaluating safety profiles. Figure 4B illustrates the presence of radiometabolites in arterial plasma following a bolus injection of [^11C]CNY‐01. […] This characteristic makes it well‐suited for kinetic modeling and reducing background signal interference.
During the PET/MR scanning, macaque arterial blood samples were collected synchronously. Metabolite extraction and analysis were based on published methods.^[ [54], [60] ^] Briefly, the blood samples were centrifuged to isolate plasma. Next, protein precipitation was achieved by mixing the plasma with acetonitrile (v/v = 1). The mixture was then centrifuged again to obtain protein‐free plasma. A 1 mL aliquot of the protein‐free supernatant was diluted in 4 mL of deionized water, and the radiometabolites were analyzed by HPLC. HPLC condition: Mobile Phase A: water + 0.1% formic acid; Mobile Phase B: acetonitrile + 0.1% formic acid; separation method = 95/5 – 50/50 A/B from 3–8 min linear gradient; 50/50–5/95 A/B from 8–10 min linear gradient; 5/95 A/B from 10–11 min isocratic; flow rate 2 mL min^−1.

The target of series [2] is T1, σ1R (Mus musculus, UniProt O55242).
T1 construct: The PET/CT studies in mice followed previously reported procedures; from tissue; host or cells: mouse brain in vivo (C57BL/6 wild type; 5xFAD transgenic)
T1 sequence (O55242 whole entry): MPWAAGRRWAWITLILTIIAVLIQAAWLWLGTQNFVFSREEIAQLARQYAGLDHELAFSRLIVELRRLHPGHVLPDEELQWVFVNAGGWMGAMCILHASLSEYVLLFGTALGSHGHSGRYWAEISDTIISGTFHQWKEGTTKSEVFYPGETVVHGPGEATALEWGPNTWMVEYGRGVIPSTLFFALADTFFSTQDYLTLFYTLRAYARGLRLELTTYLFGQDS
The series is described as follows: Mice PET/CT imaging, baseline and self-blocking. The class given is in vivo, C57BL/6 mice. On the procedure: PET/CT imaging studies of [^11C]CNY‐01 and [^11C]CNY‐02 were performed in male C57BL/6 mice. […] The whole‐brain time‐activity curve (TAC) of each tracer was generated. […] To investigate the binding specificity of [^11C]CNY‐01 and [^11C]CNY‐02, blocking studies were carried out by pre‐administrating mice with corresponding unlabeled ligands. […] This is due to the receptors in peripheral tissues being occupied by CNY‐01, leading to more radiotracer entering the brain and quickly washing out. […] Of note, the TACs show an increase in brain tracer uptake during the blocking studies, which could be attributed to peripheral blocking effects. To address this, we normalized the brain uptake data to the maximum radioactivity observed in the blood (input function). This normalization allowed us to account for peripheral changes in tracer availability.
Figure 3 Mice PET/CT study with [^11C]CNY‐01 and [^11C]CNY‐02. A) Representative baseline and blocking (pre‐treated with 1.0 mg kg^−1 CNY‐01) PET/CT images of [^11C]CNY‐01 focused on the brain (summed 30‒60 min, n = 4). B) Whole brain time‐activity curves of [^11C]CNY‐01 for baseline and blocking mice. C) The normalized baseline and blocking TACs of [^11C]CNY‐01 (normalized the brain uptake curves with the maximum radioactivity in the blood at each time point). D) Representative baseline and blocking (pre‐treated with 1.0 mg kg^−1 CNY‐02) PET/CT images of [^11C]CNY‐02 focused on the brain (summed 30‒60 min, n = 4). E) Whole brain time‐activity curves of [^11C]CNY‐02 for baseline and blocking mice. F) The normalized baseline and blocking TACs of [^11C]CNY‐02 (normalized the brain uptake curves with the maximum radioactivity in the blood at each time point). Data were presented as mean ± standard error of the mean (SEM). Quantification of results was performed using Student's t‐test (***p < 0.0001).
The PET/CT studies in mice followed previously reported procedures with minor modifications.^[ [53], [54] ^] Mice (wild‐type: C57BL/6, male, 6‐month‐old; AD transgenic: 5xFAD, male, 6‐month‐old, n = 4 for each group) were anesthetized with inhalational isoflurane (Patterson Vet Supply, Inc., Greeley, CO, USA) at 2.0% in a carrier of 2 L min^−1 medical oxygen, and maintained at 1.0% isoflurane during the imaging scan. Mice were injected with radiotracer (200 µL) via lateral tail vein catheterization at the start of the dynamic PET scan (Gamma Medica, Northridge, CA, USA). For blocking studies, the blocking agent was administered via the tail vein 5 min before radiotracer injection. Dynamic PET acquisition lasted 60 min and was followed by computed tomography (CT) for anatomic co‐registration. […] Reconstructed images were exported from the scanner in DICOM format and were analyzed using PMOD (PMOD 4.01).

For the compound `Cc1nc(-c2ccc(O[11CH3])cc2)nc(OCCCN2CCCCC2)c1Cl` [[^11C]CNY-01], in series [1], the “parent compound present in plasma” value is on record as “over 30%”. Also, the “maximum standard uptake value (SUV) in the brain” value in series [2] (male C57BL/6 mice, baseline PET/CT) is recorded as 1.3. Further, in series [2] (pre-treated with 1.0 mg kg^−1 of the corresponding unlabeled ligand), the “blocking effect, brain uptake normalized to maximum radioactivity in the blood” value is reported as “significant blocking effect”.
